Source: US8309068B2, “Isolated polypeptides and methods of improving muscle strength” (Myostin Therapeutics Pty Ltd., priority 2006, dated 2012)
Where no end group is shown, it is not given here.

Key:
[1] = tested on: skin biopsy wound in C56b1/6 mice; experiment: In vivo skin biopsy trial; details: 4 mm biopsy punch; 6 μg/g SC day 1, 3, 5 and 7; vs saline, particularly later time points
Protocol: C56b1/6 mice at ˜10 months of age were anesthetized, the skin at the back of the neck was shaved, and two wounds made on the skin with a 4 mm biopsy punch. The mice were injected subcutaneously with either saline or 300 myostatin antagonist at 6 μg/g of body weight at day 1, 3, 5 and 7 after injury. The mice were allowed to heal for 5, 7, 14, 21 and 28 days, after which they were culled and the skin processed for histology.
For the histology, skin samples were fixed in 10% formalin, embedded and mounted in paraffin and stained with Masson's Trichrome stain. The sections were analysed for the size of wound area for each day following the treatments, and the values plotted.

primary myoblasts = experiment: Migration of primary myoblasts isolated from mice treated in vivo; details: 6 μg/g BW SC three times a week for six weeks; three chemo-attractant media; vs saline
From the text: In a second myoblast migration assay, primary myoblasts isolated form hind limb of saline treated (control) and myostatin antagonist 300 treated mice (as described in example 4 below). Three chemo-attractant media were used: DMEM containing 2% horse serum (HS) and 5% chicken embryo extract (CEE) (optimal chemo-attractant); DMEM containing only 5% CEE or DMEM containing only 2% HS (both suboptimal chemo-attractants). Plain DMEM was used as negative control. On a 24-well plate, the bottom wells were filled with test or control media. Seventy-five thousand cells were added to the top wells. The plate was incubated for 7h at 37° C., 5% CO2. […] The membrane was then fixed, stained in Gill's hematoxylin and wet mounted on slides. Migrated cells were counted on four representative fields per membrane and the average number plotted.
(§1) An animal trial was conducted to assess the effects of myostatin antagonist 300 in improving muscle function. Sixteen month old mice were divided into two groups of ten. While the control group received saline subcutaneous (SC) injections, the other group received myostatin antagonist 300 SC at 6 μg/gram of BW three times a week for six weeks. The functional improvement of sarcopenic muscle was assessed by measuring grip strength of mice at the end of trial. Grip strength was measured in Newtons.

[2] = tested on: Human skeletal muscle myoblasts; experiment: Human myoblast proliferation assay; assay type: cell-based; details: 1, 5 or 10 μg/ml; 144 hours
Protocol: Human skeletal muscle myoblasts (Cambrex, USA) or primary ovine myoblasts were grown in Dulbecco's Modified Eagle Medium containing 20% FBS, 10% Horse serum and 0.5% chicken embryo extract according to the standard techniques. The myoblast proliferation assay was carried out in uncoated 96-well microtitre plates. Cell cultures were seeded at 2000 cells/well. Following a 24-hour attachment period, test media supplemented with 5% FCS containing either buffer as a control or different myostatin antagonists (300, 310 or 320) were added at 1, 5 and 10 μg/ml and cells were incubated for a further 144 hour period (for human cells) or 48 hours (for ovine cells). After the incubation period, proliferation was assessed using methylene blue photometric endpoint assay as previously described (Thomas et al, 2000).

[3] = tested on: C57B mice injected with Dexamethasone; experiment: In vivo cachexia trial (Dexamethasone-induced)
Protocol: A study of chronic cachexia was designed whereby C57B mice, 4 weeks of age, were injected with the glucocorticoid drug Dexamethasone daily at a concentration of 1 mg/kg body weight. Three treatment groups were designed: 5 mice receiving daily injections of saline, 5 mice receiving daily injections of Dexamethasone and 5 mice receiving daily injections of Dexamethasone plus 300 antagonist at a concentration of 6μg/g body weight. Body weight of the mice was recorded daily and monitored closely for signs of cachexia. Food and water consumption was recorded to ensure that loss in body weight was not due to a loss of appetite or thirst. Body weights, fat-pad weights, and MyoD and Pax7 expression were assessed.

[4] = tested on: bone marrow derived macrophages; experiment: Migration of bone marrow derived macrophages from mice treated in vivo; details: 6 μg/g BW SC three times a week for six weeks; ZAMS 11%, 22% or 33%; vs saline
From the text: For chemotaxis analysis of macrophages bone marrow was isolated from saline treated (control) and myostatin antagonist 300 treated mice (as described in example 4, below), and plated at 5×10^6 cells/plate in DMEM 10% FBS plus 10% L929 conditioned medium (containing CSF-1) for 5 days to induce macrophage differentiation. The macrophages were then harvested and used in the assay. Three concentrations of DMEM containing Zymosan-activated mouse serum (ZAMS) was used, 33% (optimum chemo-attractant concentration), 22% and 11% (suboptimal chemo-attractant concentrations). Plain DMEM was used as negative control. On a 24-well plate, the bottom wells were filled with test or control media. Seventy-five thousand cells were added to the top wells containing polyethylene terephthalate (PET) 0.8 μm membranes. The plate was incubated for 4h at 37° C., 5% CO2. […] The membrane was then fixed, stained in Gill's hematoxylin and wet mounted on slides. Migrated cells were counted on four representative fields per membrane and the average number plotted.
An animal trial was conducted to assess the effects of myostatin antagonist 300 in improving muscle function. Sixteen month old mice were divided into two groups of ten. […] The functional improvement of sarcopenic muscle was assessed by measuring grip strength of mice at the end of trial. Grip strength was measured in Newtons.

satellite cells = experiment: Satellite cell activation on single fibres from mice treated in vivo; details: 6 μg/g BW SC three times a week for six weeks; end of treatment
Protocol: To test the effect of short term myostatin antagonist treatment on satellite cell activation, single fibres were isolated from mice from each treatment group (as described in example 4, below), and cultured as described above. Satellite cell activation was investigated using anti-PCNA antibodies as described.
as §1

Substance: myostatin antagonist 300: recombinant peptide, amino acids 267-300 of bovine myostatin, with N terminal and C terminal tag (SEQ ID NO: 6) (DFGLDCDEHSTESRCCRYPLTVDFEAFGWDWIIA; cysteine pairing not given here; also: N- and C-terminal tags; listed as Homo sapiens)
- wound area [1]: smaller wound area
- migration rates of myoblasts isolated from treated mice (primary myoblasts): significantly increased migration rates
- proliferation capacity of human myoblasts compared to control [2]: significantly enhanced
- Pax7 expression (Western blot) ([3]; Dexamethasone and 300, right gastrocnemius, p<0.01): significant up-regulation (rescue)
- MyoD expression (Western blot) ([3]; Dexamethasone and 300, right gastrocnemius, p<0.05): significant up-regulation (rescue)
- increase in left inguinal fat-pad weight ([3]; Dexamethasone plus 300): 33.2%
- increase in left retroperitoneal fat-pad weight ([3]; Dexamethasone plus 300): 23.3%
- increase in right inguinal fat-pad weight ([3]; Dexamethasone plus 300): 39%
- increase in right retroperitoneal fat-pad weight ([3]; Dexamethasone plus 300): 39.2%
- average body weight loss ([3]; co-treatment Dexamethasone 1 mg/kg and 300 6 μg/g daily): smaller average body weight loss
- migratory ability of macrophages isolated from treated mice [4]: significantly increased
- satellite cell activation in fibres isolated from treated mice (satellite cells): increase observed
